Where two headings read alike, the source gives them in different places.
Assays:
[1] = system: HCV (JFH-5aFlucm4); test: Evaluation of anti-HCV activity 1: huh7.5.1 cells inoculated with HCV carrying renilla luciferase reporter; type: cell-based; conditions: Hepatitis C virus
Method: To evaluate the anti-HCV activity of the compound represented by formula 1 of the present invention, the following experiment was performed.
The hepatoma cell line huh7.5.1 was distributed in a 12-well cell culture plate at the density of 50,000 cells/well. The cells were cultured in DMEM (Dulbecco's Modified Eagle's Medium 12800-017, GIBCO Co.) supplemented with 10% (v/v) FBS (Fetal Bovine Serum SH30406.02, Hyclone Co.) and 1% (v/v) antibiotics (penicillin/streptomycin solution SV30010, Hyclone Co.) in a 37° C. 6.0% CO2 incubator (CO2 Incubator 311, Forma Scientific Co, Lnc. USA) for 24 hours to lead cell attachment on the plate. Then, the cells were inoculated with HCV (JFH-5aFlucm4, PLoS One. 2011; 6(8):e228808.) having renilla luciferase gene as a reporter for 3 hours. Upon completion of the virus inoculation, the cell culture medium was replaced with the medium containing the compounds prepared in Examples 1˜24 at the concentration of 1 μM each. The cells were cultured in a 37° C. 6.0% CO2 incubator (CO2 Incubator 311, Forma Scientific Co, Lnc. USA) for 3 days. Three days after the infection, the cell culture medium was collected to measure the cytotoxicity in the following Experimental Example 3. The cells attached on the plate were washed with PBS (phosphate buffered saline) and then lysed by treating 100 μl of 1× passive lysis buffer (Promega, E1941). The cell lysate (10 μl) was added to renilla luciferase assay reagent (50 μl) in renilla luciferase assay system (Promega, E2820), followed by measurement of luminescence for 10 seconds using the luciferase measure program with Luminometer (GLOMAX 20/20 Luminometer, Promega). At this time, the measurement of luminescence was performed in triplicate with the groups treated with the compounds of Examples 1˜24 and the non-treated control group. The mean value was calculated and compared. The luminescence of each compound over the concentration was converted into EC50 (half maximal effective concentration) by using sigma plot program, and the results are shown in Table 2.

[2] = system: HCV replicon NK/R2AN; test: Evaluation of anti-HCV activity 2: inhibition of HCV replication, huh7.5.1 cells with replicon NK/R2AN, renilla luciferase; type: cell-based; conditions: for EC50: Hepatitis C virus; for EC50 (in words): duplicated HCV treated with compound
Method: To evaluate the anti-HCV activity, that is the activity to inhibit HCV replication, of the compound represented by formula 1 of the present invention, the following experiment was performed.
The hepatoma cell line huh7.5.1 having NK/R2AN, the replicon with which the replication and translation of HCV could be measured, was distributed in a 12-well cell culture plate at the density of 50,000 cells/well. The cells were cultured in DMEM (Dulbecco's Modified Eagle's Medium 12800-017, GIBCO Co.) supplemented with 10% (v/v) FBS (Fetal Bovine Serum SH30406.02, Hyclone Co.), 1% (v/v) antibiotics (penicillin/streptomycin solution SV30010, Hyclone Co.), and G418 (600 μg/mL, Calbiochem) in a 37° C. 6.0% CO2 incubator (CO2 Incubator 311, Forma Scientific Co, Lnc. USA) for 24 hours to lead cell attachment on the plate. Then, the cells were inoculated with HCV having renilla luciferase gene as a reporter for 3 hours. Upon completion of the virus inoculation, the cell culture medium was replaced with the medium containing the compounds prepared in Examples 1˜24 were added to the culture medium at the concentrations of 40 pM˜1 μM each. The cells were cultured in a 37° C. 6.0% CO2 incubator (CO2 Incubator 311, Forma Scientific Co, Lnc. USA) for 3 days. Three days after the infection, the cell culture medium was collected to measure the cytotoxicity in the following Experimental Example 3. The cells attached on the plate were washed with PBS (phosphate buffered saline) and then lysed by treating 100 μl of 1× passive lysis buffer (Promega, E1941). The cell lysate (10 μl) was added to renilla luciferase assay reagent (50 μl) in renilla luciferase assay system (Promega, E2820), followed by measurement of luminescence for 10 seconds using the luciferase measure program with Luminometer (GLOMAX 20/20 Luminometer, Promega). At this time, the measurement of luminescence was performed in triplicate with the groups treated with the compounds of Examples 1˜24 and the non-treated control group. The mean value was calculated and compared. The luminescence of each compound over the concentration was converted into EC50 (half maximal effective concentration) by using sigma plot program, and the results are shown in Table 3. At this time, when EC50 was under 100 pM, it was marked as A; when EC50 was in the range of 100 pM 1 nM, it was marked as B; when EC50 was in the range of 1 nM˜100 nM, it was marked as C; and when EC50 was over 100 nM, it was marked as D. The results are shown in Table 3.

[3] = Huh-7.5.1, 72 h, read-out: EC50 grade
[4] = Huh-7.5.1, replicon huh7.5.1 cells, Table 3, read-out: EC50

Compound | EC50 [1, 3] [nM] | EC50 [2, 3] [nM] | EC50 ([2]; Huh-7.5.1) [nM] | EC50 (in words) [2] | EC50 ([1]; Huh-7.5.1) [nM] | EC50 [2, 4] [nM]
CN(C)[C@@H](C(=O)N1CCC[C@H]1C(=O)Nc1ccc(-c2ccc(NC(=O)[C@@H]3CCCN3C(=O)[C@@H](c3ccccc3)N(C)C)cc2)cc1)c1ccccc1 [Example 14, (S,2S,2′S)—N,N′-(biphenyl-4,4′-diyl)bis(1-((S)-2-(dimethylamino)-2-phenylacetyl)pyrrolidine-2-carboxamide)] | 1 to 100 | 0.1 to 1 | – | – | – | –
CCN(CC)[C@@H](C(=O)N1CCC[C@H]1C(=O)Nc1ccc(-c2ccc(NC(=O)[C@@H]3CCCN3C(=O)[C@@H](c3ccccc3)N(CC)CC)cc2)cc1)c1ccccc1 [Example 15, (S,2S,2′S)—N,N-(biphenyl-4,4′-diyl)bis(1-((S)-2-(diethylamino)-2-phenylacetyl)pyrrolidine-2-carboxamide)] | 1 to 100 | 0.1 to 1 | – | – | – | –
COC(=O)N[C@@H](C(=O)N1CSC[C@H]1C(=O)Nc1ccc(-c2ccc(NC(=O)[C@@H]3CSCN3C(=O)[C@H](NC(=O)OC)c3ccccc3)cc2)cc1)c1ccccc1 [Example 21, dimethyl(1S,1S′)-2,2′-((4R,4R)-4,4′-(biphenyl-4,4′-diylbis(azandiyl))bis(oxomethylene)bis(thiazolidine-4,3-diyl))bis(2-oxo-1-phenylethane-2,1-diyl)bicarbamate] | 1 to 100 | < 0.1 | < 0.1 | significantly low | – | –
COC(=O)N[C@@H](C(=O)N1CCC[C@H]1C(=O)Nc1ccc2c(c1)C(F)(F)c1cc(NC(=O)[C@@H]3CCCN3C(=O)[C@H](NC(=O)OC)c3ccccc3)ccc1-2)c1ccccc1 [Example 22, dimethyl((1R,1′R)-((2S,2′S)-2,2′-(((9,9-difluoro-9H-fluorene-2,7-diyl)bis(azandiyl))bis(carbonyl))bis(pyrrolidine-2,1-diyl))bis(2-oxo-1-phenylethane-2,1-diyl))dicarbamate] | < 1 | < 0.1 | – | significantly low | < 1 | < 0.1
COC(=O)N[C@@H](C(=O)N1CCC[C@H]1C(=O)Nc1ccc2c(c1)C(C)(C)c1cc(NC(=O)[C@@H]3CCCN3C(=O)[C@H](NC(=O)OC)c3ccccc3)ccc1-2)c1ccccc1 [Example 23, dimethyl((1R,1′R)-((2S,2′S)-2,2′-(((9,9-dimethyl-9H-fluorene-2,7-diyl)bis(azandiyl))bis(carbonyl))bis(pyrrolidine-2,1-diyl))bis(2-oxo-1-phenylethane-2,1-diyl))dicarbamate] | < 1 | < 0.1 | – | significantly low | < 1 | < 0.1
COC(=O)N[C@@H](C(=O)N1CCC[C@H]1C(=O)Nc1ccc2c(c1)C(=O)c1cc(NC(=O)[C@@H]3CCCN3C(=O)[C@H](NC(=O)OC)c3ccccc3)ccc1-2)c1ccccc1 [Example 24, dimethyl((1R,1′R)-((2S,2′S)-2,2′-(((9-oxo-9H-fluorene-2,7-diyl)bis(azandiyl))bis(carbonyl))bis(pyrrolidine-2,1-diyl))bis(2-oxo-1-phenylethane-2,1-diyl))dicarbamate] | 1 to 100 | < 0.1 | – | significantly low | – | < 0.1
